Values quoted from earlier work in US20170224835A1, “Antibody Drug Conjugates” (priority 2015, published 2017).
Where two headings read alike, the source gives them in different places.

Tests used:
[1] = in vitro

SMILES | cytotoxicity / cell killing compared with other anthracyclines [1] | efficacy in in vivo tumor models (in vivo tumor models) | cytotoxicity / cell killing compared with other anthracyclines ([1]; listed as PNU (159682))
COc1cccc2c1C(=O)c1c(O)c3c(c(O)c1C2=O)C[C@@](O)(C(=O)CO)C[C@@H]3O[C@H]1C[C@H](N2CCO[C@H](OC)C2)[C@H](O)[C@H](C)O1 [Nemorubicin, (8S,10S)-6,8,11-trihydroxy-10-((2R,4S,5S,6S)-5-hydroxy-4-((S)-2-methoxymorpholino)-6-methyltetrahydro-2H-pyran-2-yloxy)-8-(2-hydroxyacetyl)-1-methoxy-7,8,9,10-tetrahydrotetracene-5,12-dione] | more potent cell killing property |  | 
COc1cccc2c1C(=O)c1c(O)c3c(c(O)c1C2=O)C[C@@](O)(C(=O)CO)C[C@@H]3O[C@H]1C[C@H]2[C@H](O[C@@H]3[C@@H](OC)OCCN32)[C@H](C)O1 [PNU-159682, 3′-deamino-3″,4′-anhydro-[2″(S)-methoxy-3″(R)-oxy-4″-morpholinyl]doxorubicin] | significantly more cytotoxic than Nemorubicin | effective | more cytotoxic than nemorubicin and doxorubicin
